# Data published in US20120238865A1, “Method for Measuring the Physiological Parameters of Brain Interstitial Fluid and Brain Extracellular Space” (priority 2009, published 2012).
# Legend:
# [1] = Linear fitting of MRI signal intensity vs contrast agent concentration in agarose; type: physicochemical
# Experimental: According to the curve, when the concentration of the contrast agents is in the range of 0-5 mM, the SI increased with the concentration. The concentration is related to the SI. In the curve, the abscissa is the concentration of the contrast agent which reflects the mobility of the ISF in brain ECS and the ordinate is the SI of MRI. It is known by the persons skilled in art that the SI here may be the directly SI or the result which is calculated indirectly from the SI such as T1. In the exemplary embodiment, the contrast agents are Gd-DPTA. Other non-ferromagnetic, non-neurotoxicity and extracellular contrast agents, such as T1 positive MRI contrast agent, also can be used here.
# According to the curve shown in FIG. 2, the liner equation of the curve is obtained as below
# In the four experiments, injecting contrast agents with different concentration range are into agarose, the distribution of SI of the MRI is measured in different magnetic field intensity or different MRI sequence. When quantitative measuring the contrast agents via the SI, the value of K and B can be determined via linear fitting according to the experimental conditions,
# FIG. 3 is a fitting curve of the SI and the concentration of the contrast agents corresponding to the Experiment 1 shown in Table 1. It is the measurement result under the circumstances that the magnetic field intensity is 1.5T, the MRI sequence is FLASH 2D, the contrast agent is Gd-DTPA and the concentration range is 0 to 1.2 mM. According to the fitting curve, the value of K is 337.434 and the value of B is 184.344.
# [2] = MRI of contrast agent diffusion after injection into brain ECS of rat caudate nucleus; type: in vivo
# Experimental: In this exemplary embodiment, the rat 10 is anesthetized and incised in the scalp along the sagittal suture. The periosteum was separated and the bregma was exposed. 1 μL Gd-DTPA with concentration range of 5 to 25 mM is injected into the brain ECS of the rat caudate nucleus at the rate of 0.1 μL/min.
# The microsyringe is slowly removed 5 minutes after injecting. In FIG. 4, the rat narcotized is placed in the wrist coil 30 in the prone position and sent into the imaging device 20 with the examination couch 12. A T1 weighted sequence is used for the MRI scanning MR images from the imaging device 20 are processed in the image-processing unit of the controlling device 40.
# FIG. 6 is a curve of SI increment (ASI) vs. time of the contrast agents along X direction of FIG. 5 at the spots respectively 1 mm, 2 mm, and 3 mm away from the injection site. The increment of SI reflected the concentration increment of the contrast agents. In FIG. 6, the peak of ASI appears in the region which is 1 mm away from the injection site about 1 h after injection, and then value of ASI slowly falls down.
smiles,measurement,setting,value
O=C([O-])CN(CCN(CC(=O)[O-])CC(=O)O)CCN(CC(=O)[O-])CC(=O)O.[Gd+3] [Gd-DTPA],Value of K (slope of SI vs concentration),"[1]; Experiment 1: 1.5T, FLASH 2D, concentration range 0-1.2 mM",337.434
same,Value of K (slope of SI vs concentration),"[1]; Experiment 2: 3T, FLASH 2D, concentration range 0-1.2 mM",247.834
same,Value of K (slope of SI vs concentration),"[1]; Experiment 3: 3T, 3D MP-RAGE, concentration range 0-0.5 mM",1913.686
same,Value of K (slope of SI vs concentration),"[1]; Experiment 4: 3T, 3D MP-RAGE, concentration range 0-1 mM",1174.5
same,Time of peak of SI increment (ASI) after injection,"[2]; 1 mm away from injection site along X direction, 1 μL 5 to 25 mM into caudate nucleus",about 1 h
same,"Course of SI increment (ASI, concentration increment) over time",[2]; spots 2 mm and 3 mm away from injection site (cortex),first slowly increases then slowly decreases
